In patent US20230416329A1, “A PEPTIDE WITH DISULFIDE BONDS AND INHIBITORY ACTIVITY AGAINST SERINE PROTEASES, DERIVED HYBRID PEPTIDES THEREOF, AND USES THEREOF” (INSTITUTE OF MATERIA MEDICA , CHINESE ACADEMY OF MEDICAL …, priority 2020, published 2023):

Columns and labels:
[1] = biological target: chymotrypsin (Bos taurus, UniProt P00766); experiment: in vitro; conditions: for remaining at 0.025 h, 60 μM / remaining at 0.05 h, 60 μM / remaining at 0.075 h, 60 μM / remaining at 0.1 h, 60 μM / remaining at 0.15 h, 60 μM / remaining at 0.25 h, 60 μM / remaining at 0.5 h, 60 μM / remaining at 1 h, 60 μM: isolated enzyme chymotrypsin, pH 7.8, Remaining peak area (%)/chymotrypsin
How it was run: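 Peptide and 0.05 μg/μL chymotrypsin were preincubated at 37 °C for 5 min, then mixed. Aliquots taken from 1.5 up to 60.0 min were quenched with 10% TFA, and remaining peptide was measured as RP-HPLC peak area.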

[2] = biological target: DPP-IV (Homo sapiens, UniProt P27487); experiment: Tolerance of GLP-1 and its analogues to DPP-IV (RP-HPLC remaining peak area); assay type: in vitro ADME; conditions: peptide 25 μM, DPP-IV 0.5 ng/μL, 37° C.; for Remaining peak area (%)/DPP-IV: 0.0 h; for remaining at 0.5 h, 25 μM / remaining at 2 h, 25 μM / remaining at 4 h, 25 μM / remaining at 8 h, 25 μM / remaining at 12 h, 25 μM: isolated DPP-IV enzyme in buffer, pH 8
Experimental: Mix by centrifugation at 8000 rpm for 30 seconds.
(2) Arrange a certain volume of 0.005 μg/μL DPP-IV solution in another sterile EP.

[3] = Stability of GLP-1 and its analogues in human serum; conditions: 25% (v/v) human serum; for Remaining peak area (%)/human serum: 0.0 h, peptide 0.03 mM, 37° C.; for remaining at 0.5 h, 0.03 mM / remaining at 2 h, 0.03 mM / remaining at 4 h, 0.03 mM / remaining at 8 h, 0.03 mM / remaining at 12 h, 0.03 mM: human, pH 7
Experimental: The amount of the prototype peptide at 0 h was taken as 100%. At different time point, 100 μL aliquots was taken out, and 300 μL precooled anhydrous methanol was added to terminate the reaction. The remaining percentage (%) of the peptide relative to the prototype peptide at that time point was analyzed by reverse phase high performance liquid chromatography. The experiment was performed with three replicates, and data were expressed as “mean±standard deviation”. The sample was subjected to high-speed centrifugation, supernatant extraction, and freeze drying, followed by dissolution in 50% (v/v) methanol/water solution, and analyzed by reverse phase high performance liquid chromatography. The experiment was performed with three replicates, and data were expressed as “mean±standard deviation”.
Invert and mix thoroughly, then leave at −20° C. overnight. At the same time, take three sterile EP tubes and add 25 μL of human serum, 75 μL of 50 mM Tris-HCl buffer (pH7.0), and 300 μL of pre-cold absolute methanol. Invert and mix thoroughly, then leave at −20° C. overnight as a negative control, so as to eliminate the interference of proteins or peptides contained in human serum at the peak time of the target peptide after methanol precipitation.
Arrange a certain volume of human serum in another sterile EP. Incubate the EP tubes containing peptides and serum at 37° C. for 10 min, and add 137.5 μL of human serum to each EP tube containing peptides and mix well. […] Start timing and remove 100 μL of reaction solution at 0.5, 2.0, 4.0, 8.0, and 12.0 h later, respectively. Add 300 μL of pre-cold absolute methanol. Invert and mix thoroughly, then leave at −20° C. overnight. […] There are three replicates at each time point, and the peak area of the peptide at each time point is detected using reverse phase high-performance liquid chromatography (RP-HPLC). The ratio of the remaining peak area of the sample at detection time T (h) to the peak area of the prototype peptide at 0 h is calculated as the remaining percentage (%) of the peptide.

DPP-IV, sequence (P27487 whole entry, species assumed): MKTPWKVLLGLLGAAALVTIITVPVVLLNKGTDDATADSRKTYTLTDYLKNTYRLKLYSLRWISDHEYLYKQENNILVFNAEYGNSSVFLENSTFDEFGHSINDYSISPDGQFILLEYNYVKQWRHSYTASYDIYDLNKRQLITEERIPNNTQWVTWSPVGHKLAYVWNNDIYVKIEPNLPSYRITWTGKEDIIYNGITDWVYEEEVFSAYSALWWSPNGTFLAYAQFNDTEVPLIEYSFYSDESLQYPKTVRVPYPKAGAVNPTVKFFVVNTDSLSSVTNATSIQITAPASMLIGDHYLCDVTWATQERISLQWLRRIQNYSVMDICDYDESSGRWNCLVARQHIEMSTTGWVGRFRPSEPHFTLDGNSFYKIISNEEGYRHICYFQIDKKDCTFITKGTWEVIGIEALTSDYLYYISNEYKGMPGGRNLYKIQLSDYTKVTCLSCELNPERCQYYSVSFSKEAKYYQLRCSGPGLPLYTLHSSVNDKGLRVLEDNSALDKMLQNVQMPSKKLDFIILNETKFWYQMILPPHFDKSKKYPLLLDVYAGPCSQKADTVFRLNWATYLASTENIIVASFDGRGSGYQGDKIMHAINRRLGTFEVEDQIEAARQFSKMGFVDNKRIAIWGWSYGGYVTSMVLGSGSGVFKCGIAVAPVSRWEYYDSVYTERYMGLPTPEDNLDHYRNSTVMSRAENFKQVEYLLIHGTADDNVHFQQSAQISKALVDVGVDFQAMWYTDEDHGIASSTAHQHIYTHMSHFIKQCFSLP

CC[C@H](C)[C@H](NC(=O)[C@H](Cc1ccccc1)NC(=O)[C@H](CCC(=O)O)NC(=O)[C@H](CCCCN)NC(=O)[C@H](C)NC(=O)[C@H](C)NC(=O)[C@H](CCC(N)=O)NC(=O)CNC(=O)[C@H](CCC(=O)O)NC(=O)[C@H](CC(C)C)NC(=O)[C@H](Cc1ccc(O)cc1)NC(=O)[C@H](CO)NC(=O)[C@H](CO)NC(=O)[C@@H](NC(=O)[C@H](CC(=O)O)NC(=O)[C@H](CO)NC(=O)[C@@H](NC(=O)[C@H](Cc1ccccc1)NC(=O)[C@@H](NC(=O)CNC(=O)[C@H](CCC(=O)O)NC(=O)[C@H](C)NC(=O)[C@H](Cc1c[nH]cn1)NC(=O)CNC(=O)CNC(=O)[C@@H](NC(=O)[C@@H]1CCCN1C(=O)[C@@H](NC(=O)CN)[C@@H](C)CC)[C@@H](C)CC)[C@@H](C)O)[C@@H](C)O)C(C)C)C(=O)N[C@@H](C)C(=O)N[C@@H](Cc1c[nH]c2ccccc12)C(=O)N[C@@H](CC(C)C)C(=O)N[C@H](C(=O)N[C@@H](CCCCN)C(=O)NCC(=O)N[C@@H](CCCNC(=N)N)C(=O)NCC(=O)NCC(=O)N[C@@H](CCCCN)C(=O)NCC(=O)N[C@@H](CO)C(=O)N[C@H]1CSSC[C@@H](C(=O)N[C@@H](Cc2ccc(O)cc2)C(=O)NCC(=O)O)NC(=O)[C@H](CCC(N)=O)NC(=O)[C@@H]2CCCN2C(=O)[C@@H]2CCCN2C(=O)[C@H]([C@@H](C)CC)NC(=O)[C@H](CO)NC(=O)[C@H](Cc2ccc(O)cc2)NC(=O)[C@H]([C@@H](C)O)NC1=O)C(C)C [D-GLP-1-CH4]
remaining at 0.025 h, 60 μM [1]: 80.9 ± 1.7% | remaining at 0.05 h, 60 μM [1]: 78 ± 2.9% | remaining at 0.075 h, 60 μM [1]: 83.2 ± 0.3% | remaining at 0.1 h, 60 μM [1]: 83.9 ± 3% | remaining at 0.15 h, 60 μM [1]: 82.4 ± 3.9% | remaining at 0.25 h, 60 μM [1]: 78.5 ± 2.1% | remaining at 0.5 h, 60 μM [1]: 81.3 ± 2.8% | remaining at 1 h, 60 μM [1]: 76.3 ± 2.7% | Remaining peak area (%)/DPP-IV [2]: 100.0 ± 0.0% | remaining at 0.5 h, 25 μM [2]: 81.6 ± 1.9% | remaining at 2 h, 25 μM [2]: 76.4 ± 4.2% | remaining at 4 h, 25 μM [2]: 80.8 ± 1.4% | remaining at 8 h, 25 μM [2]: 75.1 ± 2.4% | remaining at 12 h, 25 μM [2]: 71 ± 3% | Remaining peak area (%)/human serum [3]: 100.0 ± 0.0% | remaining at 0.5 h, 0.03 mM [3]: 106 ± 15.8% | remaining at 2 h, 0.03 mM [3]: 97.6 ± 5.4% | remaining at 4 h, 0.03 mM [3]: 83 ± 3.1% | remaining at 8 h, 0.03 mM [3]: 64 ± 6.8% | remaining at 12 h, 0.03 mM [3]: 58.2 ± 10%

CC[C@H](C)[C@H](NC(=O)[C@H](Cc1ccccc1)NC(=O)[C@H](CCC(=O)O)NC(=O)[C@H](CCCCN)NC(=O)[C@H](C)NC(=O)[C@H](C)NC(=O)[C@H](CCC(N)=O)NC(=O)CNC(=O)[C@H](CCC(=O)O)NC(=O)[C@H](CC(C)C)NC(=O)[C@H](Cc1ccc(O)cc1)NC(=O)[C@H](CO)NC(=O)[C@H](CO)NC(=O)[C@@H](NC(=O)[C@H](CC(=O)O)NC(=O)[C@H](CO)NC(=O)[C@@H](NC(=O)[C@H](Cc1ccccc1)NC(=O)[C@@H](NC(=O)CNC(=O)[C@H](CCC(=O)O)NC(=O)[C@H](C)NC(=O)[C@H](Cc1c[nH]cn1)NC(=O)CNC(=O)CNC(=O)[C@@H](NC(=O)[C@@H]1CCCN1C(=O)[C@@H](NC(=O)CN)[C@@H](C)CC)[C@@H](C)CC)[C@@H](C)O)[C@@H](C)O)C(C)C)C(=O)N[C@@H](C)C(=O)N[C@@H](Cc1c[nH]c2ccccc12)C(=O)N[C@@H](CC(C)C)C(=O)N[C@H](C(=O)N[C@@H](CCCCN)C(=O)NCC(=O)N[C@@H](CCCNC(=N)N)C(=O)NCC(=O)NCC(=O)N[C@@H](CCCCN)C(=O)NCC(=O)N[C@@H](Cc1ccccc1)C(=O)N[C@H]1CSSC[C@@H](C(=O)N[C@@H](Cc2ccc(O)cc2)C(=O)NCC(=O)O)NC(=O)[C@H](CCC(N)=O)NC(=O)[C@@H]2CCCN2C(=O)[C@@H]2CCCN2C(=O)[C@H]([C@@H](C)CC)NC(=O)[C@H](CO)NC(=O)[C@H](Cc2ccc(O)cc2)NC(=O)[C@H]([C@@H](C)O)NC1=O)C(C)C [D-GLP-1-CH10]
stability towards chymotrypsin hydrolysis (in words) [1]: lower residual amount | remaining at 0.025 h, 60 μM [1]: 33.4 ± 1.7% | remaining at 0.05 h, 60 μM [1]: 32.6 ± 0.7% | remaining at 0.075 h, 60 μM [1]: 28.9 ± 1.1% | remaining at 0.1 h, 60 μM [1]: 31.9 ± 2.9% | remaining at 0.15 h, 60 μM [1]: 31.3 ± 0.8% | remaining at 0.25 h, 60 μM [1]: 30.9 ± 1% | remaining at 0.5 h, 60 μM [1]: 32.6 ± 0.6% | remaining at 1 h, 60 μM [1]: 36.2 ± 1.4% | Remaining peak area (%)/DPP-IV [2]: 100.0 ± 0.0% | remaining at 0.5 h, 25 μM [2]: 64.9 ± 3.7% | remaining at 2 h, 25 μM [2]: 66.2 ± 1% | remaining at 4 h, 25 μM [2]: 69.3 ± 3.3% | remaining at 8 h, 25 μM [2]: 70.8 ± 0.4% | remaining at 12 h, 25 μM [2]: 74.4 ± 0.3% | Remaining peak area (%)/human serum [3]: 100.0 ± 0.0% | serum stability (in words) [3]: more stable in serum | remaining at 0.5 h, 0.03 mM [3]: 98.4 ± 7.3% | remaining at 2 h, 0.03 mM [3]: 94.6 ± 2.1% | remaining at 4 h, 0.03 mM [3]: 101 ± 5.5% | remaining at 8 h, 0.03 mM [3]: 91.6 ± 6.8% | remaining at 12 h, 0.03 mM [3]: 43.7 ± 2.1%
